Results taken from ChEMBL document CHEMBL1201862, “PubChem BioAssay data set” (2004).
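Tested at 5 concentrations; 48 h exposure; 96-well plates; endpoints linearly interpolated, else capped at highest concentration. GI50: concentration for 50% inhibition of growth.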 Active and inactive are the calls of the source. No stated cut-off is given here; in the data, active = GI50 up to about 1.1 µM and inactive = higher.

Key:
Experiment in all cases: DTP human tumour cell line panel, 48 h
SK-MEL-28 = test system: SK-MEL-28
SN12C = test system: SN12C
SW-620 = test system: SW-620
KM-20L2 = test system: KM-20L2
M19-MEL = test system: M19-MEL
HOP-92 = test system: HOP-92
HCT-15 = test system: HCT-15
UACC-257 = test system: UACC-257
SNB-78 = test system: SNB-78
HCC 2998 = test system: HCC 2998
DMS-114 = test system: DMS-114
DLD-1 = test system: DLD-1
TK-10 = test system: TK-10
CCRF-CEM = test system: CCRF-CEM
OVCAR-4 = test system: OVCAR-4
A498 = test system: A498
OVCAR-8 = test system: OVCAR-8
OVCAR-3 = test system: OVCAR-3
A549 = test system: A549
ACHN = test system: ACHN
NCI-H226 = test system: NCI-H226
EKVX = test system: EKVX
HCT-116 = test system: HCT-116
786-0 = test system: 786-0
OVCAR-5 = test system: OVCAR-5
SF-539 = test system: SF-539
SK-MEL-5 = test system: SK-MEL-5
LXFL 529 = test system: LXFL 529
HOP-18 = test system: HOP-18
RPMI-8226 = test system: RPMI-8226
HL-60 = test system: HL-60
COLO 205 = test system: COLO 205
SR = test system: SR
KM12 = test system: KM12
UACC-62 = test system: UACC-62
DMS-273 = test system: DMS-273
SNB-19 = test system: SNB-19
RXF 393 = test system: RXF 393
SF-295 = test system: SF-295
SNB-75 = test system: SNB-75
Malme-3M = test system: Malme-3M
IGROV-1 = test system: IGROV-1
NCI-H522 = test system: NCI-H522
NCI-H23 = test system: NCI-H23
RXF 631 = test system: RXF 631
HT-29 = test system: HT-29
HOP-62 = test system: HOP-62
K562 = test system: K562
UO-31 = test system: UO-31
LOX IMVI = test system: LOX IMVI
SK-OV-3 = test system: SK-OV-3
M14 = test system: M14
MOLT-4 = test system: MOLT-4
U-251 = test system: U-251
SF-268 = test system: SF-268
NCI-H460 = test system: NCI-H460
SK-MEL-2 = test system: SK-MEL-2
CAKI-1 = test system: CAKI-1

Measured: GI50

Cc1ccc(-c2cc(-c3ccccc3)c(C#N)c(=O)[nH]2)cc1
inactive: SK-MEL-28 > 100 µM | SN12C > 100 µM | SW-620 > 100 µM | KM-20L2 > 100 µM | M19-MEL > 100 µM | HOP-92 56.9 µM | UACC-257 > 100 µM | SNB-78 > 100 µM | HCC 2998 > 100 µM | DMS-114 > 100 µM | DLD-1 > 100 µM | TK-10 > 100 µM | CCRF-CEM > 100 µM | OVCAR-4 79.1 µM | A498 > 100 µM | OVCAR-8 > 100 µM | OVCAR-3 > 100 µM | A549 > 100 µM | ACHN > 100 µM | NCI-H226 > 100 µM | EKVX > 100 µM | HCT-116 > 100 µM | 786-0 > 100 µM | OVCAR-5 > 100 µM | SF-539 > 100 µM | SK-MEL-5 > 100 µM | LXFL 529 > 100 µM | HOP-18 > 100 µM | RPMI-8226 > 100 µM | HL-60 > 100 µM | COLO 205 > 100 µM | SR > 100 µM | KM12 > 100 µM | UACC-62 > 100 µM | DMS-273 > 100 µM | SNB-19 > 100 µM | RXF 393 > 100 µM | SF-295 > 100 µM | SNB-75 53.2 µM | Malme-3M > 100 µM | IGROV-1 > 100 µM | NCI-H522 > 100 µM | NCI-H23 > 100 µM | RXF 631 > 100 µM | HT-29 > 100 µM | HOP-62 > 100 µM | K562 > 100 µM | UO-31 > 100 µM | LOX IMVI > 100 µM | SK-OV-3 > 100 µM | M14 > 100 µM | MOLT-4 > 100 µM | U-251 > 100 µM | SF-268 > 100 µM | NCI-H460 > 100 µM
> 100 µM: HCT-15

O=CC1=CCCN(CCc2c[nH]c3ccccc23)C1
inactive: SK-MEL-28 11.9 µM | SN12C 46.2 µM | SW-620 17.6 µM | KM-20L2 65.8 µM | M19-MEL 72.8 µM | HOP-92 64.9 µM | UACC-257 63.8 µM | HCC 2998 71.6 µM | DMS-114 40.6 µM | DLD-1 53.5 µM | TK-10 76.6 µM | CCRF-CEM 23.4 µM | SK-MEL-2 63.5 µM | OVCAR-8 48.5 µM | OVCAR-3 42.6 µM | A549 186 µM | CAKI-1 75.5 µM | ACHN 70.6 µM | NCI-H226 46.3 µM | EKVX 84.7 µM | HCT-116 28.2 µM | 786-0 62.2 µM | OVCAR-5 71.3 µM | SF-539 54 µM | SK-MEL-5 62.8 µM | LXFL 529 11.2 µM | HOP-18 57.3 µM | RPMI-8226 37.2 µM | HL-60 11.2 µM | COLO 205 77.6 µM | SR 11.8 µM | KM12 56.9 µM | UACC-62 58.3 µM | DMS-273 46.2 µM | SNB-19 45.2 µM | RXF 393 30.5 µM | SF-295 57.3 µM | Malme-3M 64.7 µM | IGROV-1 86.5 µM | NCI-H522 69.3 µM | NCI-H23 47.6 µM | RXF 631 47 µM | HT-29 56.4 µM | HOP-62 52.6 µM | K562 23.6 µM | LOX IMVI 6.47 µM | SK-OV-3 86.5 µM | MOLT-4 13.2 µM | U-251 52.5 µM | SF-268 68.2 µM | NCI-H460 54.6 µM
21.7 µM: HCT-15
